In paper PMC2630366 (The Journal of pharmacology and experimental therapeutics, 2008):
Read-outs that look alike come from different tables or passages of the source. Where no end group is shown, it is not given here.

What was measured:
mice [1] = settings: 50 mgs/kg, ref Okamura et al., 2008; cited from earlier work
[2] = ref Okamura et al., 2008; cited from earlier work
mice [3] = settings: administered into the amygdala in mice; ref Jungling et al., 2008; cited from earlier work
Swiss mice = assay: Mouse righting reflex recovery test, Swiss mice; assay type: in vivo; settings: diazepam 15 mg/kg i.p., 16 mice per group
NPSR^+/+ mice = assay: Mouse righting reflex recovery test, NPSR^+/+ mice; assay type: in vivo; settings: diazepam 15 mg/kg i.p.
NPSR^-/- mice = assay: Mouse righting reflex recovery test, NPSR^-/- mice; assay type: in vivo; settings: diazepam 15 mg/kg i.p.
native hPAR2 = target: T1, native hPAR2 (Homo sapiens, UniProt P55085); assay: Selectivity: calcium mobilization, native hPAR2 in A549 cells; assay type: cell-based
T1 sequence (P55085 26-397): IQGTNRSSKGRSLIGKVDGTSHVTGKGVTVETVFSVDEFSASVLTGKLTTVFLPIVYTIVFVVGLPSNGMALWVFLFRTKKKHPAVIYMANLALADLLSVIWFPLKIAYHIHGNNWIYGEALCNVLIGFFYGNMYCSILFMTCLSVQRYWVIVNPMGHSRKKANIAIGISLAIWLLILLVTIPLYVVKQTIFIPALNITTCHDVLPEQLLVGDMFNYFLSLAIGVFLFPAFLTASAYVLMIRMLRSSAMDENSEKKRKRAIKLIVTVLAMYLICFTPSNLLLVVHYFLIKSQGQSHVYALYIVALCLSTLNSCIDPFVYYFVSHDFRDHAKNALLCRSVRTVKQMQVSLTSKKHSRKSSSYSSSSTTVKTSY

Compound: O=C(NCc1ccc(F)cc1)N1CCN2C(=O)OC(c3ccccc3)(c3ccccc3)C2C1 (centres unmarked) [SHA 68, 3-oxo-1,1-diphenyl-tetrahydro-oxazolo[3,4-a]pyrazine-7-carboxylic acid 4-fluoro-benzylamide]
- effect on NPS-stimulated locomotion (mice [1]): able to partially counteract the stimulatory effects of NPS on locomotion
- blood brain barrier penetration [2]: limited blood brain barrier penetration
- effect on anxiety and extinction of conditioned fear responses (mice [3]): exerts functionally opposing responses

Compound: CN1C(=O)CN=C(c2ccccc2)c2cc(Cl)ccc21 [diazepam]
- percent of animals losing the righting reflex (Swiss mice): 92%
- percent of animals losing the righting reflex (NPSR^+/+ mice; 10-12 mice per group): 100%
- sleeping time (time to regain the RR) (NPSR^+/+ mice; mean ± sem of 10-12 mice): 180 ± 18 min
- percent of animals losing the righting reflex (NPSR^-/- mice; 10-12 mice per group): 100%
- sleeping time (time to regain the RR) (NPSR^-/- mice; mean ± sem of 10-12 mice): 211 ± 19 min

Compound: SLIGKV-NH2 [SLIGKV-NH2]
- EC50 (native hPAR2): 21.9 µM
- Emax (native hPAR2; A549, read-out: Emax, control): 449 ± 25%
- Emax (native hPAR2; A549, read-out: Emax, in presence of [D-Cys(tBu)^5]NPS 10 μM): 433 ± 37%
